Source: US10940188B2, “Compounds and methods for treatment and prevention of Flavivirus infection” (priority 2016, dated 2021)
Several values for one entry are separate records, joined by “and”; a condition that tells them apart may be missing. Equal entries are not always repeated. Where two headings read alike, the source gives them in different places.

System: ZIKV-induced caspase 3/7 activity in hNPCs
Assay: Caspase 3/7 activity assay, ZIKV-infected hNPCs
Type: cell-based
Conditions: for IC50: read-out: Caspase 3 (IC50, uM) NPCs; for Emax: read-out: Caspase 3 (efficacy, %) NPCs
How it was run: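 Human NPCs, SNB-19 cells or astrocytes seeded 16 h, compound added 30 min before ZIKV, then 6 h infection at 37 °C. Caspase-Glo 3/7 luminescence after 30 min at room temperature, normalized to uninfected cells (0%) and ZIKV-infected cells (100%).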

[1] = Homo sapiens, ZIKV-infected hNPCs

Compound	IC50 [1] [µM]	Emax [1] [%]	also measured
Cc1ccc(O)c(-n2nc3ccccc3n2)c1 [2-(2H-Benzotriazol-2-yl)-4-methylphenol]	4.89	77.6	
Nc1nc2ccc([N+](=O)[O-])cc2s1 [2-Amino-6-nitrobenzothiazole]	56.2	57.1	
CCOCCOC(=O)C=Cc1ccc(OC)cc1 [2-Ethoxylethyl-p-methoxycinnamate]	18.4	56	
O=C(O)c1cc([N+](=O)[O-])ccc1NCCCc1ccccc1 [5-Nitro-2-(3-phenylpropylamino)benzoic acid]	8.69	59.8	
O=C1NC(=O)/C(=C/c2ccc(-c3ccc(F)cc3O)o2)S1 [AS-252424]			Caspase 3 (efficacy, %) NPCs (ZIKV-infected hNPCs): 52.3%; IC50 (ZIKV-infected hNPCs): 1.64 µM
O=C1c2ccccc2C(=O)c2c1ccc(O)c2O [Alizarin]	21.8	58.5	
COc1ccc(-c2cc(=S)ss2)cc1 [Anethole trithione]	13	70.3	
N#CC1(c2ccc(NC(=O)c3cccnc3NCc3ccncc3)cc2)CCCC1 [Apatinib]		0	
O=C(Nc1ccc(C(=O)O)c(O)c1)c1ccccc1 [Benzoylpas]	4.89	85.4	
O=C(OCc1ccccc1)c1ccc(O)cc1 [Benzylparaben]	15.5	56	
O=C1NC(=O)C(=Cc2ccc(-c3ccc(F)cc3)o2)S1 [CAY10505]			Caspase 3 (efficacy, %) NPCs (ZIKV-infected hNPCs): 83.5%; IC50 (ZIKV-infected hNPCs): 10.9 µM
CN(C)CCCSc1ccccc1NC(=O)/C=C/c1ccccc1 [Cinanserin]	17.3	80.4	
CC(=O)Oc1cccc2c1C(=O)c1c(OC(C)=O)cc(C(=O)O)cc1C2=O [Diacerein]	15.5	56.5	
O=C(Oc1ccccc1)c1cccc(C(=O)Oc2ccccc2)c1 [Diphenyl isophthalate]	4.47	89.4	
Cc1cc(O)c2c(c1)C(=O)c1cc(O)cc(O)c1C2=O [Emodin]	2.59	82.1	
C[C@H](NC(=O)C(=O)Nc1ccccc1C(C)(C)C)C(=O)N[C@@H](CC(=O)O)C(=O)COc1c(F)c(F)cc(F)c1F [Emricasan]	0.37	85.3	
O=C(O)c1ccccc1NCCc1ccccc1 [Enfenamic acid]	21.8	47.1	
O=S(=O)(O)c1ccc2[nH]c(-c3ccccc3)nc2c1 [Ensulizole]			IC50 (Homo sapiens): 1.38 µM; Emax (Homo sapiens): 80.6%

Compound	IC50 [1] [µM]	Emax [1] [%]	also measured
c1ccc(CCNc2nc(-c3ccccc3)cs2)cc1 [Fanetizole]	14.6	81.8	
O=C(O)CCC(=O)c1ccc(-c2ccccc2)cc1 [Fenbufen]	19.5	72.5	
CN1CC(=O)NC1=NC(=O)Nc1cccc(Cl)c1 [Fenobam]			Caspase 3 (efficacy, %) NPCs (ZIKV-infected hNPCs): 108%; IC50 (ZIKV-infected hNPCs): 5.48 µM
O=C(O)c1ccccc1Nc1cccc(C(F)(F)F)c1 [Flufenamic acid]	17.3	68.1	
C/C1=C2/[N-][C@H]([C@H](CC(N)=O)[C@@]2(C)CCC(=O)NC[C@@H](C)OP(=O)([O-])O[C@H]2[C@@H](O)[C@@H](n3cnc4cc(C)c(C)cc43)O[C@@H]2CO)[C@]2(C)N=C(/C(C)=C3N=C(/C=C4N=C1[C@@H](CCC(N)=O)C\4(C)C)[C@@H](CCC(N)=O)[C@]\3(C)CC(N)=O)[C@@H](CCC(N)=O)[C@]2(C)CC(N)=O.[Co+3].[OH-] [Hydroxocobalamin]			Caspase 3 (efficacy, %) NPCs (ZIKV-infected hNPCs): 67.4%; IC50 (ZIKV-infected hNPCs): 0.87 µM
CCC(C(=O)O)c1ccc(N2Cc3ccccc3C2=O)cc1 (stereo not shown) [Indobufen]	6.15	81.3	
O=C(c1ccccc1)c1ccc2n1CCC2C(=O)O (stereo not shown) [Ketorolac tromethamine]	10.3	75	
Cc1cccc(C#Cc2ccccc2)n1 [MPEP, 2-Methyl-6-(phenylethynyl)pyridine]	4.11	96.1	
O=C(Nc1ccc([N+](=O)[O-])cc1Cl)c1cc(Cl)ccc1O [Niclosamide]	1.84	87.5	
CC(=O)Nc1ccc([C@H](C)C(=O)Nc2ncc(C(C)C)s2)cc1 [PHA-690509]			Caspase 3 (efficacy, %) NPCs (ZIKV-infected hNPCs): 73.0%; IC50 (ZIKV-infected hNPCs): 19.5 µM
CN1CCN(c2cc3c(nn2)Oc2ccccc2N3C)CC1 [Pipofezine]	12	47.7	
Cc1cccc(/C=C/c2ccccc2)n1 [SIB 1893]			Caspase 3 (efficacy, %) NPCs (ZIKV-infected hNPCs): 95.2%; IC50 (ZIKV-infected hNPCs): 8.69 µM
CC(C(=O)O)c1ccc(C(=O)c2cccs2)cc1 (stereo not shown) [Suprofen]	15.5	59.1	
c1ccc2[nH]c(-c3cscn3)nc2c1 [Thiabendazole]	9.75	83.4	
CC(C(=O)O)c1ccc(C(=O)c2ccccc2)s1 (stereo not shown) [Tiaprofenic acid]	8.69	86.7	
COc1cccc(-c2ccc(NC(=O)C3=C(C(=O)O)CCC3)c(F)c2)c1 [Vidofludimus]	2.45	87.8	
Flurbiprofen axetil			Caspase 3 (efficacy, %) NPCs (ZIKV-infected hNPCs): 0.0%
Vitamin B12			Caspase 3 (efficacy, %) NPCs (ZIKV-infected hNPCs): 94.7% and 59.1%; IC50 (ZIKV-infected hNPCs): 6.9 µM and 11.3 µM
